Entries after “also recorded” stand apart in the source; their conditions may differ.

1 substance from US20220280548A1, “COMBINATION THERAPY FOR SPINAL MUSCULAR ATROPHY” (Biogen MA Inc., priority 2019, published 2022) can be followed below.

The subject of this data set is neonatal (P0-P1) SMA mice having a human SMN2 transgene. Kind of data set: Body weight and righting reflex in neonatal SMA mice given nusinersen and/or AAV-SMN1 (Example 9). It is filed as in vivo. The settings on record: monotherapy, single dose. On the procedure: Nusinersen and AAV-SMN1 were administered to neonatal (P0-P1) SMA mice having a human SMN2 transgene. A low or high dose of nusinersen (1 μg and 3 μg respectively) was administered to the mice along with a low or high dose of AAV-SMN1 (1×10^10 GC or 3×10^10 GC respectively) at birth (P0-P1). The mice body weight and righting reflex were measured and compared to the body weight and righting reflex of control mice of the same genotype having received either nusinersen or AAV-SMN1 alone.
[…]

As for “nusinersen (antisense UCACUUUCAUAAUGCUGG; 2'-O-MOE, phosphorothioate, chemistry not fully specified) [uniformly modified 2′-O-(2-methoxyethyl) phosphorothioate antisense oligonucleotide consisting of 18 nucleotide residues, targets intron 7 of SMN2 pre-mRNA]”, the “rescue of motor function (righting reflex)” value (PND 16) was “full rescue” and the “rescue of motor function (righting reflex)” value (postnatal day (PND) 8) was “partially rescues; also recorded: partial rescue”. In addition, the body weight entry (relative to WT control) is reported as “lags behind the WT control”.
